Several values for one entry are separate records, joined by “and”; a condition that tells them apart may be missing. Identical values can stand only once.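 A five-concentration, 48-hour dose response in 96-well plates underlies each endpoint, interpolated linearly between surrounding concentrations. Abbreviation: GI50, concentration required for 50% inhibition of growth. Definition used: TGI = concentration required for complete inhibition of growth.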

This note sets out measurements from PubChem BioAssay (NCI).

Among the test systems are A498 renal; MDA-MB-231 breast; MDA-MB-435; MOLT-4 leukemia; NCI/ADR-RES ovarian; OVCAR-8 ovarian; SK-MEL-2 melanoma; SK-MEL-28 melanoma; SW-620 colon; EKVX NSCLC.
Assay in all cases: growth of human tumour cells (NCI), 48 h

With `Cc1cc(Nc2cc(CN3CCOCC3)c3nc(C)c(Cc4ccc(Cl)cc4F)n3n2)n[nH]1`, the GI50 in the test on A498 renal is 0.288 µM; with MDA-MB-231 breast, 1.57 µM; in the test on MDA-MB-435, 0.694 µM; in the test on MOLT-4 leukemia it was 1.59 µM; in the test on NCI/ADR-RES ovarian it was 4.28 µM; in the test with OVCAR-8 ovarian, 2.79 µM. Also, the figures for the GI50 in the test with SK-MEL-2 melanoma, in the test with SK-MEL-28 melanoma and in the test with SW-620 colon were 2.37 µM, 3.5 µM and 1.07 µM, respectively. In addition, the TGI in the test on A498 renal was 1.1 µM; with MDA-MB-231 breast it was 5.65 µM; in the test on MDA-MB-435 it was 19.6 µM; in the test on MOLT-4 leukemia, 6.71 µM; in the test with NCI/ADR-RES ovarian, 18.7 µM; with OVCAR-8 ovarian, 17.2 µM. Besides, the results for the TGI in the test on SK-MEL-2 melanoma, with SK-MEL-28 melanoma and in the test with SW-620 colon were 7.64 µM, 17.2 µM and 14.3 µM, respectively.

Regarding `COc1cc(-c2nc(-c3nnc(-c4ccc(F)c(Cl)c4)o3)c3ccccn23)cc(OC)c1OC`, the GI50 is 1.55 µM with A498 renal; 4.19 µM in the test on EKVX NSCLC; 2.15 µM with MDA-MB-231 breast; 3.09 µM in the test with MDA-MB-435; > 100 µM in the test on MOLT-4 leukemia; 1.88 µM in the test on NCI/ADR-RES ovarian. The GI50 was 1.69 µM in the test with OVCAR-8 ovarian, 2.27 µM in the test on SK-MEL-2 melanoma and 3.05 µM in the test on SW-620 colon. In addition, the TGI with A498 renal was 6.76 µM; in the test on EKVX NSCLC it was > 100 µM; with MDA-MB-231 breast, 14.7 µM; in the test with MDA-MB-435 it was > 100 µM; with MOLT-4 leukemia it was > 100 µM; with NCI/ADR-RES ovarian, 5.24 µM. The figures for the TGI in the test on OVCAR-8 ovarian, with SK-MEL-2 melanoma and in the test with SW-620 colon were 4.44 µM, 5.59 µM and > 100 µM, respectively.

In the case of `CN(C)CCNC(=O)c1cccc2cc([N+](=O)[O-])ccc12`, the GI50 is 1.19 µM and 0.185 µM in the test with A498 renal; 0.292 µM and 0.0829 µM with MOLT-4 leukemia; 0.605 µM and 0.157 µM with OVCAR-8 ovarian; 1.83 µM and 0.279 µM in the test with SK-MEL-28 melanoma; 0.519 µM and 0.18 µM with SW-620 colon. Also, the TGI in the test with A498 renal was 4.53 µM and 0.91 µM; with EKVX NSCLC it was 6.33 µM and 2.28 µM; with MDA-MB-231 breast, 6.21 µM; in the test with MDA-MB-435, 7.7 µM; with MOLT-4 leukemia it was 1.25 µM and 0.407 µM; with NCI/ADR-RES ovarian it was 5.27 µM. Further, the TGI with OVCAR-8 ovarian is 7.43 µM and 1.65 µM; with SK-MEL-28 melanoma, 4.2 µM and 0.977 µM; in the test on SW-620 colon, 17.7 µM and 5.64 µM.

In the case of `COc1cc(-c2nc3ccccc3[nH]2)ccc1OCC(=O)N=Nc1c(O)[nH]c2ccc(Cl)cc12`, the GI50 with A498 renal is 2.18 µM; in the test with EKVX NSCLC, 4.94 µM; in the test on MDA-MB-231 breast it was 0.547 µM; in the test on MDA-MB-435 it was 1.43 µM; with MOLT-4 leukemia it was 0.827 µM; in the test on NCI/ADR-RES ovarian, > 100 µM. For the same molecule, the GI50 in the test with SK-MEL-2 melanoma was 1.76 µM; with SK-MEL-28 melanoma, 1.81 µM; in the test with SW-620 colon it was 0.748 µM. The TGI in the test on A498 renal was 5.42 µM; with EKVX NSCLC it was > 100 µM; in the test on MDA-MB-231 breast it was 1.86 µM; with MDA-MB-435 it was 2.76 µM; in the test on MOLT-4 leukemia, 3.12 µM; with NCI/ADR-RES ovarian, > 100 µM. In addition, the TGI with SK-MEL-2 melanoma is 3.34 µM; in the test with SK-MEL-28 melanoma it was 3.22 µM; in the test with SW-620 colon it was 2.42 µM.

`CC(C)(C)CC(C)(C)N(CSc1ccc(Cl)cc1)CSc1ccc(Cl)cc1`: the GI50 was 0.207 µM in the test on A498 renal; 0.486 µM with MDA-MB-231 breast; 1.45 µM in the test with MDA-MB-435; 0.841 µM with MOLT-4 leukemia; 2.42 µM with NCI/ADR-RES ovarian; 1.74 µM in the test on OVCAR-8 ovarian. Moreover, the GI50 in the test on SK-MEL-2 melanoma is 2.54 µM; with SK-MEL-28 melanoma, 1.99 µM; in the test with SW-620 colon, 2.02 µM. Besides, the TGI is 0.863 µM with A498 renal; 2.2 µM with MDA-MB-231 breast; 4.05 µM with MDA-MB-435; 5.09 µM in the test on MOLT-4 leukemia; > 100 µM in the test with NCI/ADR-RES ovarian; 7.57 µM with OVCAR-8 ovarian. Besides, the figures for the TGI in the test on SK-MEL-2 melanoma, with SK-MEL-28 melanoma and with SW-620 colon were 6.28 µM, 5.74 µM and 4.93 µM, respectively.

Regarding `O=[N+]([O-])c1cccc(/C=C/c2ccccn2)c1`, the GI50 in the test on A498 renal is 7.19 µM; with EKVX NSCLC, 43.8 µM; with MDA-MB-231 breast it was 23 µM; in the test on MDA-MB-435, 67 µM; in the test on MOLT-4 leukemia, > 100 µM; in the test with NCI/ADR-RES ovarian, 22.9 µM. Besides, the figures for the GI50 in the test on OVCAR-8 ovarian, with SK-MEL-28 melanoma and in the test with SW-620 colon were 45 µM, > 100 µM and 5.95 µM, respectively. The TGI in the test with A498 renal, in the test with EKVX NSCLC, in the test on MDA-MB-231 breast, with MDA-MB-435, in the test on MOLT-4 leukemia and in the test on NCI/ADR-RES ovarian was > 100 µM throughout. In addition, the TGI in the test with OVCAR-8 ovarian, in the test on SK-MEL-28 melanoma and in the test with SW-620 colon was > 100 µM in each case.

Consider `O=S(=O)(CC#CCCCOCC#Cc1ccccc1C#CCS(=O)(=O)c1ccccc1)c1ccccc1`, for which the GI50 in the test on A498 renal was > 100 µM; with EKVX NSCLC, > 100 µM; with MDA-MB-231 breast, 19.8 µM; in the test on MDA-MB-435, 26 µM; in the test on MOLT-4 leukemia it was 2.61 µM; in the test with NCI/ADR-RES ovarian it was 20.6 µM. The GI50 in the test with OVCAR-8 ovarian was 16.1 µM; in the test with SK-MEL-2 melanoma, 23 µM; in the test on SW-620 colon, 28.6 µM. In addition, the TGI in the test on A498 renal is > 100 µM; in the test on EKVX NSCLC it was > 100 µM; with MDA-MB-231 breast it was 42.8 µM; in the test with MDA-MB-435 it was 62.4 µM; in the test on MOLT-4 leukemia, 5.9 µM; with NCI/ADR-RES ovarian it was 44.1 µM. For the same molecule, the TGI in the test with OVCAR-8 ovarian was 42 µM; in the test with SK-MEL-2 melanoma, 47.9 µM; with SW-620 colon, > 100 µM.

For the molecule `O=C(CCc1ccco1)NC1CCN(CC2(c3ccc(Cl)cc3)CCC2)CC1`, the GI50 was 0.0318 µM with A498 renal; 5.79 µM with MDA-MB-231 breast; 11.8 µM in the test with MDA-MB-435; 8.37 µM in the test on MOLT-4 leukemia; 14.6 µM in the test with NCI/ADR-RES ovarian; 14.5 µM in the test on OVCAR-8 ovarian. Besides, the GI50 in the test with SK-MEL-2 melanoma is 16.9 µM; in the test on SK-MEL-28 melanoma, 15.3 µM; with SW-620 colon, 15.5 µM. Further, the TGI is 11.9 µM in the test on A498 renal; 20.1 µM in the test on MDA-MB-231 breast; 24.1 µM in the test on MDA-MB-435; 32.9 µM in the test with MOLT-4 leukemia; 36 µM in the test on NCI/ADR-RES ovarian; 30.1 µM with OVCAR-8 ovarian. The values for the TGI with SK-MEL-2 melanoma, in the test with SK-MEL-28 melanoma and in the test on SW-620 colon were 31.7 µM, 29.1 µM and 30.5 µM, respectively.
